# Laboratory results: the supplement of paper PMC12592484
# Key:
# Test in all cases: drug sensitivity score (DSS2, normalised partial AUC of dose-response, 72 h CellTiter-Glo viability) (DSS (dimensionless)); higher = more sensitive (stronger growth inhibition / cytotoxicity); extreme values may be limits of the assay
# [1] = test system: 22Rv1
# Method in brief: (§1)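 The drug sensitivity score reported here is a partial area under the fitted logistic dose–response curve, divided by the log of the curve's upper asymptote and computed in BREEZE; higher values denote greater sensitivity. Low-passage primary prostate cancer-associated fibroblasts, PF179T, WPMY-1, LNCaP and 22Rv1 cells were seeded into 384-well plates preloaded with compounds at five doses across a 10,000-fold range. CellTiter-Glo 2.0 luminescence gave viability at 72 h, scaled to vehicle and positive-control wells.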
# [2] = test system: CAF#1 (primary prostate cancer-associated fibroblasts of myCAF-like type)
# Method in brief: as §1
# [3] = test system: CAF#2 (primary prostate cancer-associated fibroblasts of iCAF-like type)
# Method in brief: as §1
# [4] = test system: CAF#3 (primary prostate cancer-associated fibroblasts of myCAF-like type)
# Method in brief: as §1
# [5] = test system: CAF#4 (primary prostate cancer-associated fibroblasts of iCAF-like type)
# Method in brief: as §1
# [6] = test system: CAF#5 (primary prostate cancer-associated fibroblasts of myCAF-like type)
# Method in brief: as §1
# [7] = test system: CAF#6 (primary prostate cancer-associated fibroblasts of iCAF-like type)
# Method in brief: as §1
# [8] = test system: CAF#7 (primary prostate cancer-associated fibroblasts of myCAF-like type)
# Method in brief: as §1
# [9] = test system: LNCAP
# Method in brief: as §1
# [10] = test system: PF179T
# Method in brief: as §1
# [11] = test system: WPMY-1
# Method in brief: as §1
Structure (SMILES),drug sensitivity score [1],drug sensitivity score [2],drug sensitivity score [3],drug sensitivity score [4],drug sensitivity score [5],drug sensitivity score [6],drug sensitivity score [7],drug sensitivity score [8],drug sensitivity score [9],drug sensitivity score [10],drug sensitivity score [11]
C[C@@]1(C(=O)Nc2ccc(F)nc2)CCCN1c1nc(Nc2cc(C3CC3)n[nH]2)c2cccn2n1 (tested concentration range 1-10000 nM),12.4,10.4,12.2,9,7.9,10.7,8.7,10.5,6.4,9.4,15.6
C[C@H]1C[C@@H](n2c(Nc3ccc(OC(F)(F)F)cc3)nc3cc(CCC(=O)O)ccc32)CC(C)(C)C1 (tested concentration range 1-10000 nM),0,0,0,0,0,0,0,0,0.4,0,0
O=C1Cc2cc(C(=O)NC3C[C@H]4CC[C@@H](C3)N4S(=O)(=O)CC3CCN(CCCC(F)(F)F)CC3)c(Cl)cc2N1 (stereo not given in full) (tested concentration range 1-10000 nM),0,0,0,0,0,0,0,0,0,0.5,0
C[C@@H]1CN(CC(=O)Nc2ccc3c(c2)Cc2cccc(-c4cc(=O)cc(N5CCOCC5)o4)c2S3)C[C@H](C)O1 (tested concentration range 2.5-25000 nM),2.5,0,0.4,0.2,0,0,0.2,0,6.7,0.4,4.2
NCC(=O)Nc1ccc(-n2nc(C(F)(F)F)cc2-c2ccc3c(ccc4ccccc43)c2)cc1 (tested concentration range 2.5-25000 nM),0,0.7,0,0,0.8,0,0,0,1.4,0,4.4
CC/C(=C(\c1ccc(O)cc1)c1ccc(OCCN(C)C)cc1)c1ccccc1 [4-hydroxytamoxifen] (tested concentration range 1-10000 nM),6.4,3.3,5.3,1.6,6.2,3.8,1.8,1.6,4.7,3.2,7.2
Nc1ncnc2c1nc(Cl)n2[C@@H]1O[C@H](CO)[C@@H](O)[C@H]1O [8-chloro-adenosine] (tested concentration range 5-50000 nM),15,7.4,8.4,3.4,9.6,6.5,2.5,2,15.1,9.1,15.7
COc1cc2c(cc1OCCCN1CCCC1)N=C(N)C21CCC1 [A-366] (tested concentration range 2.5-25000 nM),6.7,0,0,0.7,0,0,1.5,0,5.6,0.1,4.5
Cc1sc2c(c1C)C(c1ccc(Cl)cc1)=N[C@@H](CC(=O)Nc1ccc(OCCOCCOCCOCCNc3cccc4c3C(=O)N(C3CCC(=O)NC3=O)C4=O)cc1)c1nnc(C)n1-2 (stereo not given in full) [ARV-825] (tested concentration range 0-300 nM),14.7,7.7,5.8,15.6,6.9,6.2,11.6,17.1,17.1,3.3,8.1
CN[C@@H](C)C(=O)N[C@H]1CN(C(=O)CC(C)C)CC[C@H]2CC[C@@H](C(=O)NC(c3ccccc3)c3ccccc3)N2C1=O [AT-406] (tested concentration range 1-10000 nM),0,0,0,0,0,0,1.6,0,0,0,0
CO[C@H]1CC[C@H](N2C(=O)CNc3ncc(-c4ccc(C(C)(C)O)nc4)nc32)CC1 [ATG-008] (tested concentration range 1-10000 nM),8.9,5.7,7,5.5,6.5,7.4,2.8,3.1,7.6,6.3,6.2
CC[C@H](CC#N)OC(=O)N[C@@H](C)c1cccc(NC(=O)Nc2ccc(-c3cnco3)c(OC)c2)c1 [AVN944] (tested concentration range 1-10000 nM),18.7,8.5,16.1,8.5,11.4,11.4,11.4,12.1,18.1,14.9,19
COc1cc(N2CCN(C)CC2)ccc1Nc1nccc(-c2cn(C)c3cnccc23)n1 [AZ191] (tested concentration range 1-10000 nM),6.4,6,5.7,7.1,1.9,4.6,2.3,2.1,3.5,2.7,6.8
COc1cc(OC2CCN(C)CC2)ccc1Nc1ncc2c(n1)n(C1CCCC1)c(=O)n2C [AZ 3146] (tested concentration range 1-10000 nM),7.5,1.8,4.3,3.1,0.8,0.7,1.6,2.8,4.6,2.3,4.8
COc1cc2ncnc(Nc3cccc(Cl)c3F)c2cc1OC(=O)N1CCN(C)C[C@H]1C [AZD3759] (tested concentration range 0.1-1000 nM),0,0,0,0.4,0,0,0,0,0,0,0
Cc1[nH]nc(C(F)(F)F)c1Cc1sc2c(c1C(=O)N1C[C@](C)(O)CO1)c(=O)n(C)c(=O)n2C(C)C [AZD3965] (tested concentration range 0.1-1000 nM),0,0.1,0.1,0,0,0,0,0,10.5,0,0
COc1cc(CCc2cc(NC(=O)c3ccc(N4CC(C)NC(C)C4)cc3)n[nH]2)cc(OC)c1 (stereo not given) [AZD4547] (tested concentration range 0.1-1000 nM),0,1.1,2.5,6.7,0.6,1.3,5.8,13.1,0.3,3.5,0.2
CN(C)C(=O)c1ccc(S(=O)(=O)c2ccc(NC(=O)[C@@](C)(O)C(F)(F)F)c(Cl)c2)cc1 [AZD7545] (tested concentration range 1-10000 nM),0.2,0,0,0.4,0,0,0,0,2.7,0,0.1
Cc1ncc(-c2ccnc(Nc3ccc(S(C)(=O)=O)cc3)n2)n1C(C)C [AZD-5438] (tested concentration range 1-10000 nM),7.6,4.1,3.9,4,6.8,2.9,3,5.6,10.2,2.5,8.7
C[C@@H](Nc1cc(F)cc(F)c1)c1cc(C(=O)N(C)C)cc2c(=O)cc(N3CCOCC3)oc12 [AZD-8186] (tested concentration range 0.1-1000 nM),1,2.9,3.4,4.2,2.8,2.8,2.2,3.9,12.7,6.3,1
CCN1CCN(Cc2ccc(Nc3ncc(F)c(-c4cc(F)c5nc(C)n(C(C)C)c5c4)n3)nc2)CC1 [Abemaciclib] (tested concentration range 0.2-2500 nM),11,0,5.6,0,0.2,0,0.1,0,8.7,0.6,6
CN(C)Cc1c(C(=O)NCCOc2ccc(C(=O)NO)cc2)oc2ccccc12 [Abexinostat] (tested concentration range 1-10000 nM),19.8,10,12.2,8.9,6.9,9.3,9.9,9,19.5,10.6,21.6
C[C@]12CC[C@H](O)CC1=CC[C@@H]1[C@@H]2CC[C@]2(C)C(c3cccnc3)=CC[C@@H]12 [Abiraterone] (tested concentration range 0.5-5000 nM),0,0,0,0,0,1.5,0,0,1.3,0,0
CC#CC(=O)N1CCC[C@H]1c1nc(-c2ccc(C(=O)Nc3ccccn3)cc2)c2c(N)nccn12 [Acalabrutinib] (tested concentration range 0.1-1000 nM),0,0.1,0.4,0,0,0.8,0,0,0,0,0
COc1cc(C)c(/C=C/C(C)=C/C=C/C(C)=C/C(=O)O)c(C)c1C [Acitretin] (tested concentration range 1-10000 nM),0,1.7,4,0.2,0.1,0.8,0.4,0,0,6.3,0
